# Non-standard residues stand in square brackets, D forms with d. Residues, ends and D or L forms follow the SMILES beside them. *: point of attachment. Lauroyl = CCCCCCCCCCCC(=O)*
# Tests used:
# Assay type in all cases: cell-based
# [1] = tested on: Candida albicans ATCC 18804; assay: MIC in yeasts, NCCLS M27-A2 broth microdilution, RPMI 1640 (Table 9, letter e); settings: ATCC 18804
# Protocol: Briefly, RPMI 1640 supplemented with glutamine and phenol red as a pH indicator was used in the broth microdilution method. A 96-well plate was inoculated so that the final inoculum of yeast for each well contained between 0.5×10^3 and 2.5×10^3 CFU/milliliter. […] Plates were incubated for 24 to 48 hours at 37° C. The lowest concentration of peptide that contained no visible growth was determined as the MIC. MIC values that utilized this method of MIC determination are indicated in Table 9 with a subscript letter “e.” “Peptide Number” corresponds to peptide compositions and corresponding designations in Table 3.
# [2] = tested on: Propionibacterium acnes ATCC 6919; assay: MIC, agar dilution method NCCLS M11-A6, Brucella agar, anaerobic (Table 9, superscript c); settings: ATCC 6919
# Method in brief: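 Agar dilution per NCCLS M11-A6 on Brucella agar; final inoculum 1.5×10^8 CFU/milliliter applied to plates, incubated 48-96 hours at 37° C. under anaerobic (GasPak) conditions. MIC = lowest peptide concentration with no colony growth.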
# Salmonella dublin (Lane) = assay: MIC, NCCLS M7-A6 broth microdilution (Table 9, no superscript)
# Method in brief: (§1)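 MIC determined by microdilution in cation-adjusted Mueller Hinton broth after overnight growth at 37° C, defined as the lowest peptide level lacking turbidity.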
# [3] = tested on: Staphylococcus aureus ATCC 29213; assay: MIC, NCCLS M7-A6 broth microdilution, cation-adjusted Mueller Hinton broth (Table 9, no superscript); settings: ATCC 29213
# Method in brief: as §1
# [4] = tested on: Staphylococcus epidermidis ATCC 12228; assay: MIC, NCCLS M7-A6 broth microdilution (Table 9, no superscript); settings: ATCC 12228
# Method in brief: as §1
# [5] = tested on: Pseudomonas aeruginosa ATCC 27853; assay: as above; settings: ATCC 27853
# Method in brief: as §1
# [6] = tested on: Escherichia coli ATCC 25922; assay: as above; settings: ATCC 25922
# Method in brief: as §1
SMILES,MIC C. albicans [1],MIC P. acnes [2],MIC S. dublin (Salmonella dublin (Lane)),MIC S. aureus [3],MIC S. epidermidis [4],MIC P. aeruginosa [5],MIC E. coli [6]
CCCCCCCCCCCC(=O)N[C@H](C(=O)N[C@@H](CCCNC(=N)N)C(=O)N[C@H](C(=O)N[C@@H](C)C(=O)N[C@@H](CCCNC(=N)N)C(=O)N[C@H](C(=O)NCC(=O)N[C@@H](CCCNC(=N)N)C(=O)N[C@@H](CO)C(=O)N[C@@H](CCCNC(=N)N)C(=O)N[C@@H](Cc1c[nH]c2ccccc12)C(=O)N[C@@H](CCCNC(=N)N)C(=O)N[C@@H](CC(=O)O)C(=O)N[C@@H](Cc1c[nH]c2ccccc12)C(=O)N[C@@H](C)C(=O)N[C@@H](CCCNC(=N)N)C(=O)N[C@@H](CC(N)=O)C(=O)N[C@@H](Cc1ccccc1)C(=O)N[C@@H](CCSC)C(=O)N[C@@H](CCCNC(=N)N)C(N)=O)[C@@H](C)O)C(C)C)[C@@H](C)O [Peptide 70] (Lauroyl-TRVARTGRSRWRDWARNFMR-NH2),8e ug/mL,64c ug/mL,32 µg/mL,8 µg/mL,1 µg/mL,8 µg/mL,4 µg/mL
"CCCCCCCCCCCC(=O)N[C@@H](C(=O)N[C@H](CCCNC(=N)N)C(=O)N[C@@H](C(=O)N[C@H](C)C(=O)N[C@H](CCCNC(=N)N)C(=O)N[C@@H](C(=O)NCC(=O)N[C@H](CCCNC(=N)N)C(=O)N[C@H](CO)C(=O)N[C@H](CCCNC(=N)N)C(=O)N[C@H](Cc1c[nH]c2ccccc12)C(=O)N[C@H](CCCNC(=N)N)C(=O)N[C@H](CC(=O)O)C(=O)N[C@@H](C(=O)N[C@H](C)C(=O)N[C@H](CCCNC(=N)N)C(=O)N[C@H](CC(N)=O)C(=O)N[C@H](Cc1ccccc1)C(=O)N[C@H](CCSC)C(=O)N[C@H](CCCNC(=N)N)C(N)=O)C(C)C)[C@H](C)O)C(C)C)[C@H](C)O [Peptide 78, Lauryl-trvartgrsrwrdvarnfmr-NH2] (Lauroyl-[dT][dR][dV][dA][dR][dT]G[dR][dS][dR][dW][dR][dD][dV][dA][dR][dN][dF][dM][dR]-NH2)",8e ug/mL,32c ug/mL,8 µg/mL,8 µg/mL,1 µg/mL,8 µg/mL,8 µg/mL
"CCCCCCCCCCCC(=O)N[C@@H](CCCNC(=N)N)C(=O)N[C@@H](CO)C(=O)N[C@@H](CCCNC(=N)N)C(=O)N[C@@H](Cc1c[nH]c2ccccc12)C(=O)N[C@@H](CCCNC(=N)N)C(=O)N[C@@H](CC(=O)O)C(=O)N[C@@H](Cc1c[nH]c2ccccc12)C(=O)N[C@@H](CO)C(=O)N[C@@H](CCCNC(=N)N)C(=O)N[C@@H](CC(N)=O)C(=O)N[C@@H](Cc1ccccc1)C(=O)N[C@@H](CCSC)C(=O)N[C@@H](CCCNC(=N)N)C(N)=O [Peptide 87, Lauryl-RSRWRDWSRNFMR-NH2] (Lauroyl-RSRWRDWSRNFMR-NH2)",16e ug/mL,>64c ug/mL,8 µg/mL,4 µg/mL,,,
"CCCCCCCCCCCC(=O)N[C@@H](CCCNC(=N)N)C(=O)N[C@@H](CO)C(=O)N[C@@H](CCCNC(=N)N)C(=O)N[C@@H](Cc1c[nH]c2ccccc12)C(=O)N[C@@H](CCCNC(=N)N)C(=O)N[C@@H](CC(=O)O)C(=O)N[C@H](C(=O)N[C@@H](C)C(=O)N[C@@H](CCCNC(=N)N)C(=O)N[C@@H](CC(N)=O)C(N)=O)C(C)C [Peptide 100, Lauryl-RSRWRDVARN-NH2] (Lauroyl-RSRWRDVARN-NH2)",32e ug/mL,>64c ug/mL,>64 µg/mL,8 µg/mL,16 µg/mL,>64 µg/mL,>64 µg/mL
"CCCCCCCCCCCC(=O)N[C@H](CCCNC(=N)N)C(=O)N[C@H](Cc1c[nH]c2ccccc12)C(=O)N[C@H](CCCNC(=N)N)C(=O)N[C@H](C)C(=O)N[C@H](CC(C)C)C(=O)N[C@H](C)C(=O)N[C@H](CCCNC(=N)N)C(N)=O [Peptide 245, Lauryl-rwralar-NH2] (Lauroyl-[dR][dW][dR][dA][dL][dA][dR]-NH2)",,8c ug/mL,16 µg/mL,1 µg/mL,2 µg/mL,8 µg/mL,8 µg/mL
"CCCCCCCCCCCC(=O)N[C@H](CCCNC(=N)N)C(=O)N[C@H](Cc1c[nH]c2ccccc12)C(=O)N[C@H](CCCNC(=N)N)C(=O)N[C@H](C)C(=O)N[C@@H](C(=O)N[C@H](C)C(=O)N[C@H](CCCNC(=N)N)C(N)=O)C(C)C [Peptide 246, Lauryl-rwravar-NH2] (Lauroyl-[dR][dW][dR][dA][dV][dA][dR]-NH2)",,32c ug/mL,>64 µg/mL,4 µg/mL,2 µg/mL,>64 µg/mL,32 µg/mL

# Further lines, results first:
MIC C. albicans [1],MIC P. acnes [2],MIC S. dublin (Salmonella dublin (Lane)),MIC S. aureus [3],MIC S. epidermidis [4],MIC P. aeruginosa [5],MIC E. coli [6],SMILES
>64e ug/mL,>64c ug/mL,32 µg/mL,16 µg/mL,,,,CSCC[C@H](NC(=O)[C@H](Cc1ccccc1)NC(=O)[C@H](CC(N)=O)NC(=O)[C@H](CCCNC(=N)N)NC(=O)[C@H](CO)NC(=O)[C@H](Cc1c[nH]c2ccccc12)NC(=O)[C@H](CC(=O)O)NC(=O)[C@H](CCCNC(=N)N)NC(=O)[C@H](Cc1c[nH]c2ccccc12)NC(=O)[C@H](CCCNC(=N)N)NC(=O)[C@H](CO)NC(=O)[C@H](CCCNC(=N)N)NC(=O)CNC(=O)[C@@H](NC(=O)[C@H](CCCNC(=N)N)NC(=O)[C@H](CO)NC(=O)[C@@H](NC(=O)[C@H](CCCNC(=N)N)NC(=O)[C@@H](NC(=O)[C@H](C)NC(=O)[C@H](C)NC(=O)[C@H](CCCNC(=N)N)NC(=O)[C@H](CCCNC(=N)N)NC(=O)[C@H](CCCNC(=N)N)NC(=O)[C@@H](N)CCCNC(=N)N)[C@@H](C)O)C(C)C)[C@@H](C)O)C(=O)N[C@@H](CCCNC(=N)N)C(=O)N[C@@H](C)C(=O)N[C@@H](C)C(=O)N[C@@H](CCCNC(=N)N)C(=O)N[C@@H](CCCNC(=N)N)C(=O)N[C@@H](CCCNC(=N)N)C(=O)N[C@@H](CCCNC(=N)N)C(N)=O [Peptide 12] (H-RRRRAATRVSRTGRSRWRDWSRNFMRAARRRR-NH2)
8e ug/mL,64c ug/mL,32 µg/mL,16 µg/mL,2 µg/mL,32 µg/mL,32 µg/mL,"CCCCCCCCCCCC(=O)N[C@@H](CCCNC(=N)N)C(=O)N[C@@H](CO)C(=O)N[C@@H](CCCNC(=N)N)C(=O)N[C@@H](Cc1c[nH]c2ccccc12)C(=O)N[C@@H](CCCNC(=N)N)C(=O)N[C@@H](CC(=O)O)C(=O)N[C@H](C(=O)N[C@@H](C)C(=O)N[C@@H](CCCNC(=N)N)C(=O)N[C@@H](CC(N)=O)C(=O)N[C@@H](Cc1ccccc1)C(=O)N[C@@H](C)C(=O)N[C@@H](CCCNC(=N)N)C(N)=O)C(C)C [Peptide 97, Lauryl-RSRWRDVARNFAR-NH2] (Lauroyl-RSRWRDVARNFAR-NH2)"
16e ug/mL,>64c ug/mL,16 µg/mL,4 µg/mL,8 µg/mL,64 µg/mL,16 µg/mL,"CCCCCCCCCCCC(=O)N[C@@H](CCCNC(=N)N)C(=O)N[C@@H](CO)C(=O)N[C@@H](CCCNC(=N)N)C(=O)N[C@@H](Cc1c[nH]c2ccccc12)C(=O)N[C@@H](CCCNC(=N)N)C(=O)N[C@@H](CC(=O)O)C(=O)N[C@H](C(=O)N[C@@H](C)C(=O)N[C@@H](CCCNC(=N)N)C(=O)N[C@@H](CC(N)=O)C(=O)N[C@@H](Cc1ccccc1)C(=O)N[C@@H](CCSC)C(N)=O)C(C)C [Peptide 98, Lauryl-RSRWRDVARNFM-NH2] (Lauroyl-RSRWRDVARNFM-NH2)"
32e ug/mL,>64c ug/mL,>64 µg/mL,4 µg/mL,4 µg/mL,>64 µg/mL,32 µg/mL,"CCCCCCCCCCCC(=O)N[C@@H](CCCNC(=N)N)C(=O)N[C@@H](CO)C(=O)N[C@@H](CCCNC(=N)N)C(=O)N[C@@H](Cc1c[nH]c2ccccc12)C(=O)N[C@@H](CCCNC(=N)N)C(=O)N[C@@H](CC(=O)O)C(=O)N[C@H](C(=O)N[C@@H](C)C(=O)N[C@@H](CCCNC(=N)N)C(=O)N[C@@H](CC(N)=O)C(=O)N[C@@H](Cc1ccccc1)C(N)=O)C(C)C [Peptide 99, Lauryl-RSRWRDVARNF-NH2] (Lauroyl-RSRWRDVARNF-NH2)"
>64e ug/mL,>64c ug/mL,>64 µg/mL,4 µg/mL,2 µg/mL,32 µg/mL,32 µg/mL,"CCCCCCCCCCCC(=O)N[C@@H](CCCNC(=N)N)C(=O)N[C@@H](CO)C(=O)N[C@@H](CCCNC(=N)N)C(=O)N[C@@H](Cc1c[nH]c2ccccc12)C(=O)N[C@@H](CCCNC(=N)N)C(=O)N[C@@H](CC(=O)O)C(=O)N[C@H](C(=O)N[C@@H](C)C(=O)N[C@@H](CCCNC(=N)N)C(N)=O)C(C)C [Peptide 101, Lauryl-RSRWRDVAR-NH2] (Lauroyl-RSRWRDVAR-NH2)"

# — US20050282755A1, “Compositions having antimicrobial activity and uses thereof” (priority 2004, published 2005)
